How the values were obtained:
Assay type in all cases: in vivo
Echinochloa crusgalli = assay: Post-emergence test experiment, Echinochloa crusgalli; settings: 1000 g a.i./ha, 3 weeks in greenhouse, fresh weight inhibition
Outline: (§1)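 Pot-grown plants, sown 2 weeks earlier and at 2-3 leaves, received a foliar spray of compound in acetone/tween-80 with methyl oleate adjuvant. Effect was expressed as fresh weight inhibition rate after three further greenhouse weeks.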

Digitaria sanguinalis = assay: Post-emergence test experiment, Digitaria sanguinalis; settings: 1000 g a.i./ha, 3 weeks in greenhouse, fresh weight inhibition
Outline: as §1

[1] = test system: Monocotyledonous and dicotyledonous weed seeds and main crop seeds; assay: Post-emergence test experiment, other weeds and crops (Table 4, 1000 g a.i./ha); settings: 3 weeks in greenhouse, fresh weight inhibition
Outline: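 Weed and crop seeds (wheat, corn, rice, soybean, cotton, oilseed, millet, sorghum) sown in soil pots in a greenhouse and sprayed at 2-3 leaf stage, 2 weeks after sowing. Compound in acetone/tween-80 with methyl oleate concentrate (1.5 L/ha) as synergist. Effect recorded as fresh-weight growth inhibition rate.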

Row | Compound | Activity level (growth inhibition rate), Echinochloa crusgalli (Echinochloa crusgalli) | Activity level (growth inhibition rate), Digitaria sanguinalis (Digitaria sanguinalis) | Activity level (growth inhibition rate), Abutilon theophrasti Medic. [1] | Activity level (growth inhibition rate), Galium aparine [1] | Activity level (growth inhibition rate), Monochoria Vaginalis [1]
1 | COC(=O)[C@@H](C)Oc1nc(F)c(Cl)c(NCc2ccco2)c1Cl [Compound 2-378] | 5 (Level 5: the growth inhibition rate is greater than 85%) | 5 (Level 5: the growth inhibition rate is greater than 85%) | 5 (Level 5: the growth inhibition rate is greater than 85%) | 5 (Level 5: the growth inhibition rate is greater than 85%) | 5 (Level 5: the growth inhibition rate is greater than 85%)
2 | COC(=O)C(NC(=O)OC(C)(C)C)OC(=O)C(C)Oc1nc(F)c(Cl)c(N)c1Cl (centres unmarked) [Compound 2-372] | 5 (Level 5: the growth inhibition rate is greater than 85%) | 5 (Level 5: the growth inhibition rate is greater than 85%) | 5 (Level 5: the growth inhibition rate is greater than 85%) | 5 (Level 5: the growth inhibition rate is greater than 85%) | 5 (Level 5: the growth inhibition rate is greater than 85%)
3 | CC(Oc1nc(F)c(Cl)c(N)c1Cl)C(=O)[S-].C[N+](C)(C)C (centres unmarked) [Compound 2-4] | 5 (Level 5: the growth inhibition rate is greater than 85%) | 5 (Level 5: the growth inhibition rate is greater than 85%) | 5 (Level 5: the growth inhibition rate is greater than 85%) | 5 (Level 5: the growth inhibition rate is greater than 85%) | 5 (Level 5: the growth inhibition rate is greater than 85%)
4 | CCCCC(CC)COC(=O)[C@@H](C)Oc1nc(F)c(Cl)c(N)c1Cl (some centres unmarked) [Compound 2-157] | 5 (Level 5: the growth inhibition rate is greater than 85%) | 5 (Level 5: the growth inhibition rate is greater than 85%) | 5 (Level 5: the growth inhibition rate is greater than 85%) | 5 (Level 5: the growth inhibition rate is greater than 85%) | 5 (Level 5: the growth inhibition rate is greater than 85%)
5 | CC(Oc1nc(F)c(Cl)c(N)c1Cl)C(=O)SCc1ccc(F)cc1 (centres unmarked) [Compound 2-313] | 5 (Level 5: the growth inhibition rate is greater than 85%) | 5 (Level 5: the growth inhibition rate is greater than 85%) | 5 (Level 5: the growth inhibition rate is greater than 85%) | 5 (Level 5: the growth inhibition rate is greater than 85%) | 5 (Level 5: the growth inhibition rate is greater than 85%)
6 | COc1ccc(SC(=O)C(C)Oc2nc(F)c(Cl)c(N)c2Cl)cc1 (centres unmarked) [Compound 2-358] | 5 (Level 5: the growth inhibition rate is greater than 85%) | 5 (Level 5: the growth inhibition rate is greater than 85%) | 5 (Level 5: the growth inhibition rate is greater than 85%) | 5 (Level 5: the growth inhibition rate is greater than 85%) | 5 (Level 5: the growth inhibition rate is greater than 85%)
7 | CC(Oc1nc(F)c(Cl)c(N)c1Cl)C(=O)OCc1ccc(Br)cc1 (centres unmarked) [Compound 2-324] | 5 (Level 5: the growth inhibition rate is greater than 85%) | 5 (Level 5: the growth inhibition rate is greater than 85%) | 5 (Level 5: the growth inhibition rate is greater than 85%) | 5 (Level 5: the growth inhibition rate is greater than 85%) | 5 (Level 5: the growth inhibition rate is greater than 85%)
8 | CCC(OC)OC(=O)C(C)Oc1nc(F)c(Cl)c(N)c1Cl (centres unmarked) [Compound 2-291] | 5 (Level 5: the growth inhibition rate is greater than 85%) | 5 (Level 5: the growth inhibition rate is greater than 85%) | 5 (Level 5: the growth inhibition rate is greater than 85%) | 5 (Level 5: the growth inhibition rate is greater than 85%) | 5 (Level 5: the growth inhibition rate is greater than 85%)
9 | CCCCCCC(C)SC(=O)[C@@H](C)Oc1nc(F)c(Cl)c(N)c1Cl (some centres unmarked) [Compound 2-164] | 5 (Level 5: the growth inhibition rate is greater than 85%) | 5 (Level 5: the growth inhibition rate is greater than 85%) | 5 (Level 5: the growth inhibition rate is greater than 85%) | 5 (Level 5: the growth inhibition rate is greater than 85%) | 5 (Level 5: the growth inhibition rate is greater than 85%)
10 | CC(Oc1nc(F)c(Cl)c(N)c1Cl)C(=O)SCc1ccccc1F (centres unmarked) [Compound 2-309] | 5 (Level 5: the growth inhibition rate is greater than 85%) | 5 (Level 5: the growth inhibition rate is greater than 85%) | 5 (Level 5: the growth inhibition rate is greater than 85%) | 5 (Level 5: the growth inhibition rate is greater than 85%) | 5 (Level 5: the growth inhibition rate is greater than 85%)
11 | CC(C)CSC(=O)[C@@H](C)Oc1nc(F)c(Cl)c(N)c1Cl [Compound 2-80] | 5 (Level 5: the growth inhibition rate is greater than 85%) | 5 (Level 5: the growth inhibition rate is greater than 85%) | 5 (Level 5: the growth inhibition rate is greater than 85%) | 5 (Level 5: the growth inhibition rate is greater than 85%) | 5 (Level 5: the growth inhibition rate is greater than 85%)
12 | C[C@@H](Oc1nc(F)c(Cl)c(N)c1Cl)C(=O)OCC(F)(F)F [Compound 2-281] | 5 (Level 5: the growth inhibition rate is greater than 85%) | 5 (Level 5: the growth inhibition rate is greater than 85%) | 5 (Level 5: the growth inhibition rate is greater than 85%) | 5 (Level 5: the growth inhibition rate is greater than 85%) | 5 (Level 5: the growth inhibition rate is greater than 85%)
13 | CC(C)OC(=O)[C@@H](C)Oc1nc(F)c(Cl)c(N)c1Cl [Compound 2-75] | 5 (Level 5: the growth inhibition rate is greater than 85%) | 5 (Level 5: the growth inhibition rate is greater than 85%) | 5 (Level 5: the growth inhibition rate is greater than 85%) | 5 (Level 5: the growth inhibition rate is greater than 85%) | 5 (Level 5: the growth inhibition rate is greater than 85%)
14 | C[C@@H](Oc1nc(F)c(Cl)c(N)c1Cl)C(=O)Sc1cccn1C [Compound 2-368] | 5 (Level 5: the growth inhibition rate is greater than 85%) | 5 (Level 5: the growth inhibition rate is greater than 85%) | 5 (Level 5: the growth inhibition rate is greater than 85%) | 5 (Level 5: the growth inhibition rate is greater than 85%) | 5 (Level 5: the growth inhibition rate is greater than 85%)
15 | COC(=O)C(C)OC(=O)C(C)Oc1nc(F)c(Cl)c(N)c1Cl (centres unmarked) [Compound 2-295] | 5 (Level 5: the growth inhibition rate is greater than 85%) | 5 (Level 5: the growth inhibition rate is greater than 85%) | 5 (Level 5: the growth inhibition rate is greater than 85%) | 5 (Level 5: the growth inhibition rate is greater than 85%) | 5 (Level 5: the growth inhibition rate is greater than 85%)
16 | Cc1ccccc1CSC(=O)C(C)Oc1nc(F)c(Cl)c(N)c1Cl (centres unmarked) [Compound 2-303] | 5 (Level 5: the growth inhibition rate is greater than 85%) | 5 (Level 5: the growth inhibition rate is greater than 85%) | 5 (Level 5: the growth inhibition rate is greater than 85%) | 5 (Level 5: the growth inhibition rate is greater than 85%) | 5 (Level 5: the growth inhibition rate is greater than 85%)
